A short description of series [1]: Apparent permeability across apical to basal side in MDCK-MDR1 cells. Format: ADME, cell-based, Canis lupus familiaris. The following applies: dog.
Series [2] in a line: Inhibition of GST-tagged DLK (1 to 520 residues)(unknown origin) using MKK4 as substrate preincubated for 60 mins followed by substrate/ATP addition measured after 30 mins by HTRF assay. The arrangement: species or system Homo sapiens.
The nature of series [3]: Intrinsic clearance in mouse liver microsomes. Format: ADME, Microsome. As to conditions: read-out: CLH. (In general: Liver microsomes are vesicles of endoplasmic reticulum, rich in cytochrome P450 enzymes.)
A short description of series [4]: Efflux ratio in MDCK-MDR1 cells. Format: ADME, cell-based, Canis lupus familiaris. As to conditions: dog.
Another series has as its target CYP3A4 (Homo sapiens, UniProt P08684). The series is described as follows: Time dependent inhibition of CYP3A4 (unknown origin) at 30 uM incubated for 30 mins relative to control. It counts as ADME. As to conditions: read-out: TDI.
Series [5] can be described thus: Ratio of unbound drug concentration in brain to plasma of mouse at 5 mg/kg. It counts as ADME, organism-based. As to conditions: brain and plasma, read-out: K(p,uu,brain).
A short description of series [6]: Intrinsic clearance in human liver microsomes. Format: ADME, Microsome. The following applies: read-out: CLH.
Series [7] is described as follows: Inhibition of human DLK transfected in HEK293-T-REx cells assessed as decrease in JNK phosphorylation incubated for 5 hrs by HTRF assay. Format: cell-based. For orientation: TR-FRET usually uses a lanthanide donor and a delayed reading to cut background.
Series [8] is described as follows: Clearance in mouse at 5 mg/kg, po. The following applies: in vivo. It counts as ADME, organism-based.
Series [9] in a line: Kinetic solubility of compound at pH 6.8. As to conditions: buffer, read-out: Kinetic_solubility. Format: physicochemical.
Series [10] is described as follows: Oral bioavailability in mouse at 5 mg/kg. The following applies: in vivo. It counts as ADME, organism-based.
Series [11] can be described thus: Half life in mouse at 5 mg/kg, po. It counts as ADME, organism-based. The following applies: in vivo.
Series [12] in a line: Intrinsic clearance in dog liver microsomes. Format: ADME, Canis lupus familiaris, Microsome. The following applies: read-out: CLH.
The target of series [13] is Voltage-gated inwardly rectifying potassium channel KCNH2 (Homo sapiens, UniProt Q12809). Briefly: Inhibition of hERG by patch-clamp method. Format: toxicity. In general terms: The hERG channel carries a current that helps repolarise heart muscle cells.
Chain of Voltage-gated inwardly rectifying potassium channel KCNH2 (Q12809 whole entry): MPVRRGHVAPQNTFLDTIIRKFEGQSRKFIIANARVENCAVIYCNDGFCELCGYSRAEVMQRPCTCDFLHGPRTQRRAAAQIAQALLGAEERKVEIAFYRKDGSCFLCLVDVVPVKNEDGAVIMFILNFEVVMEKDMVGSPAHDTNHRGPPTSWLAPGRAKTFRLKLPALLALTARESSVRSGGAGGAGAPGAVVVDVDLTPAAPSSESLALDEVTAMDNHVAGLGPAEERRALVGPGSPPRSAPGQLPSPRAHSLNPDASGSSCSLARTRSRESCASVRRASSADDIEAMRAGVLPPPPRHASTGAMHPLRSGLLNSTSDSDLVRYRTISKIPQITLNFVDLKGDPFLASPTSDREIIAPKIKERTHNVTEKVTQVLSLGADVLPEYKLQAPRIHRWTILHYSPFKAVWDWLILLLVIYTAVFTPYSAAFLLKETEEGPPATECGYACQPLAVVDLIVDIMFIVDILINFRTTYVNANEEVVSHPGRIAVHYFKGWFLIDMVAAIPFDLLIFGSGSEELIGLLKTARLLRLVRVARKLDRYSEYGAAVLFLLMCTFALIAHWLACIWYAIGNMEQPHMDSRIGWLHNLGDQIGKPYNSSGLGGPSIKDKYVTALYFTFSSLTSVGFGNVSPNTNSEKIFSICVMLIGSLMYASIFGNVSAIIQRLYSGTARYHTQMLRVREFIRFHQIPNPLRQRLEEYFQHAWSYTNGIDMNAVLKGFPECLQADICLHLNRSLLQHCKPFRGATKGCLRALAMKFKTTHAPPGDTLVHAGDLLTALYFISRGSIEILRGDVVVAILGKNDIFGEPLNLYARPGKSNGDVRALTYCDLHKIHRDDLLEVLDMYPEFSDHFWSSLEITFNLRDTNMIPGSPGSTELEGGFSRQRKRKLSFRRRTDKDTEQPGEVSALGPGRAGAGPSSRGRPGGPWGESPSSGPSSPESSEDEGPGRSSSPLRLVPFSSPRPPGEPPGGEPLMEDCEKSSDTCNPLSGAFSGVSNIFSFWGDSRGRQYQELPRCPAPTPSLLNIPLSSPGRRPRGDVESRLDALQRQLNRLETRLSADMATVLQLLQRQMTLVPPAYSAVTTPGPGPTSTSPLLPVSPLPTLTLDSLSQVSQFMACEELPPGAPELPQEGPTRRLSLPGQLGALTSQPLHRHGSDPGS
Series [14] can be described thus: Energy of neutralization, pKa of compound. Format: physicochemical.
The nature of series [15]: Inhibition of DLK in C57/Bl6 mouse DRG neuron model of paclitaxel-induced axon degeneration assessed as decrease in p-cJun level measured after 20 hrs by immunofluorescence based analysis. Format: cell-based.
Series [16] is described as follows: Inhibition of GST-tagged LZK (1 to 966 residues)(unknown origin) using MKK4 as substrate preincubated for 60 mins followed by substrate/ATP addition measured after 30 mins by HTRF assay. The arrangement: species or system Homo sapiens.
Series [17] in a line: Protection against paclitaxel-induced axon degeneration in C57/Bl6 mouse DRG neurons measured after 72 hrs by immunofluorescence based analysis. Format: functional, cell-based. As to conditions: drg neuron.
A short description of series [18]: Protection against paclitaxel-induced axon degeneration in C57/Bl6 mouse DRG neurons at 0.74 uM measured after 72 hrs by immunofluorescence based analysis relative to control. It counts as functional. As to conditions: C57/Bl6, DRG neuron.

Values after ≈ are worked out from the molar mass of the structure shown. Where only a bound is given, the exact number is not on record here.

Chain of CYP3A4 (P08684 whole entry): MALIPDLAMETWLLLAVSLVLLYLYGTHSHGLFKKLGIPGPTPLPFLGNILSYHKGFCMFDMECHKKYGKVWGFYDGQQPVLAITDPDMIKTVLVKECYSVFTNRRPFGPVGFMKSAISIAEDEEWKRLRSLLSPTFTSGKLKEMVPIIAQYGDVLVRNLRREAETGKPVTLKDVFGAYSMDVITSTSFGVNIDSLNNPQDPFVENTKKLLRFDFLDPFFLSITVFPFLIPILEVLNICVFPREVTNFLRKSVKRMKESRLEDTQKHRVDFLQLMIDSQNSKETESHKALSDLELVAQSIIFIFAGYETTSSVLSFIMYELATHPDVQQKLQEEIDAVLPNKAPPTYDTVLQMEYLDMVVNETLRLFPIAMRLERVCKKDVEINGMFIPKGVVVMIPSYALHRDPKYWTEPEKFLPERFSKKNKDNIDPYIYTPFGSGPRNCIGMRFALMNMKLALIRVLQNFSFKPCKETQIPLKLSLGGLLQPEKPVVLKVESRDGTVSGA

Consider `CCn1nc(-c2cnc(N)c(OC(F)(F)F)c2)c2ccn(C3CCOCC3)c(=O)c21`, for which the Papp A→B in series [1] stood at 7.6 ×10⁻⁶ cm/s. In addition, in series [2], the inhibition constant Ki is 2.8 nM. Besides, the figures for the microsomal CLint in series [3] and in series [6] were 16 µL/min/mg and 8.8 µL/min/mg, respectively. Besides, the efflux ratio in series [4] was 1. Also, the inhibition at 0.5 h, 30 µM at CYP3A4 was 18%. The Kp uu in series [5] stood at 0.43. The 50% inhibitory concentration (IC50) in [7] came out at 110 nM.
Regarding `CCc1nc(-c2cnc(N)c(C(F)(F)F)c2)c2ccc([C@H]3COCCN3C)cn12`, in series [1], the Papp A→B is 16.2 ×10⁻⁶ cm/s. Besides, the apparent clearance (CL/F) in [8] came to 68 mL/min/kg. In addition, the microsomal CLint in series [3] stood at 20 µL/min/mg; in series [6], 18 µL/min/mg. The efflux ratio in [4] came to 1. The solubility kinetic in [9] came out at 320 µM (≈ 130 µg/mL). Also, in series [10], the bioavailability was found to be 112%. In [11], the half-life was 0.6 h. Also, in [5], the Kp uu is 0.17.
`CCn1nc(-c2cnc(N)c(OC(F)(F)F)c2)c2ccn([C@@H]3CCOC[C@@H]3OC)c(=O)c21` returned a Ki in series [2] of 1.9 nM. Further, the microsomal CLint in series [3] came to 8.3 µL/min/mg; in series [12] it was 96 µL/min/mg; in [6] it was 14 µL/min/mg. In addition, the Kp uu in series [5] stood at 0.41. The 50% inhibitory concentration (IC50) in series [7] was 94 nM.
The compound `CCn1nc(-c2cnc(N)c(OC(F)(F)F)c2)c2ccn([C@H]3CC4(CC4)OC[C@H]3OC)c(=O)c21` returned a Ki in series [2] of 2.2 nM. Moreover, the microsomal CLint came out at 9.7 µL/min/mg in [3], 5.4 µL/min/mg in series [12] and 3.2 µL/min/mg in series [6]. In series [7], the IC50 was 200 nM.
As for `CCc1nc(-c2cnc(N)c(C(F)(F)F)c2)c2ccc(C3CCN(C)CC3)cn12`, the apparent permeability from apical to basolateral (Papp A→B) in series [1] came to 10.6 ×10⁻⁶ cm/s. In addition, the apparent clearance CL/F in series [8] turned out to be 43 mL/min/kg. In series [2], the Ki came to 0.3 nM. Further, the results for the microsomal CLint in [3] and in series [6] were 15 µL/min/mg and 3 µL/min/mg, respectively. The IC50 is under 400 nM in [13] and 23 nM in series [7]. For the same compound, the efflux ratio in [4] was 1.6. In addition, the solubility kinetic in series [9] was 268 µM (≈ 108 µg/mL). Further, the bioavailability in series [10] was 85%. Further, the half-life in series [11] was 3.8 h. In [5], the Kp uu came out at 0.18. Moreover, the pKa in series [14] stood at 9.2.
As for `Nc1ncc(-c2cc(N3C[C@@H]4C[C@H]3CO4)nc(N3CCC(F)(F)C3)n2)cc1OC(F)F` [GDC-0134], the values for the Ki in series [2] and in series [16] were 3.5 nM and 7 nM, respectively. Besides, the IC50 in series [15] turned out to be 301 nM; in series [7], 79 nM. In [17], this compound came in with a concentration giving a half-maximal response (EC50) of 475 nM. This compound registered an Emax at 0.74 µM in series [18] of 75%.

The Papp A→B is the apparent permeability from the apical to the basolateral side of a cell layer. One may read the Ki as the dissociation constant of the complex between target and ligand, obtained from inhibition or displacement. Usually efflux ratio stands for the permeability from basolateral to apical divided by that in the opposite direction, in the common usage. As usually defined, the IC50 is the midpoint of a concentration-inhibition curve. In general, CL/F refers to the apparent clearance, not corrected for the fraction that reaches the circulation. In general, half-life refers to the time in which the quantity being followed falls by half. One may read the pKa as the pH at which an ionisable group is half protonated. By EC50 is commonly meant the concentration giving half of the maximal effect. High values mean a need for much substance, low ones an effect from little substance. A word on the Emax: it is the size of the effect at its maximum, as opposed to the concentration needed.

These data come from ChEMBL document CHEMBL6096672, “In Silico Enabled Discovery of KAI-11101, a Preclinical DLK Inhibitor for the Treatment of Neurodegenerative Disease and Neuronal Injury” (J Med Chem, 2025).
